Reference: US7138361B2, “Herbicidal heterocycles” (E. I. du Pont de Nemours and Company, priority 2000, dated 2006)

Key:
Type in all cases: in vivo
[1] = system: crabgrass (Digitaria sanguinalis); experiment: Test B postemergence; details: 13 to 15 days
Method in brief: (§1)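 Pre: seeded pots sprayed, chemical in non-phytotoxic solvent/surfactant mix. Post: plants 2–18 cm, 1–4 leaf, same formulation. Greenhouse 13–15 d; visual % control vs untreated, 0–100 scale.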

[2] = system: lambsquarters (Chenopodium album); experiment: Test B postemergence; details: 13 to 15 days
Method in brief: as §1

[3] = system: giant foxtail (Setaria faberii); experiment: Test B postemergence; details: 13 to 15 days
Method in brief: as §1

corn (Zea mays) [4] = experiment: Test B postemergence; details: 13 to 15 days
Method in brief: as §1

[5] = system: Surinam grass (Brachiaria decumbens); experiment: Test B postemergence; details: 13 to 15 days
Method in brief: as §1

[6] = system: barnyardgrass (Echinochloa crus-galli); experiment: Test B postemergence; details: 13 to 15 days
Method in brief: as §1

[7] = system: cocklebur (Xanthium strumarium); experiment: Test B postemergence; details: 13 to 15 days
Method in brief: as §1

[8] = system: velvetleaf (Abutilon theophrasti); experiment: Test B postemergence; details: 13 to 15 days
Method in brief: as §1

[9] = system: pigweed (Amaranthus retroflexus); experiment: Test B postemergence; details: 13 to 15 days
Method in brief: as §1

[10] = system: wheat (Triticum aestivum); experiment: Test B postemergence; details: 13 to 15 days
Method in brief: as §1

[11] = system: morning glory (Ipomoea hederacea); experiment: Test B postemergence; details: 13 to 15 days
Method in brief: as §1

[12] = system: blackgrass (Alopecurus myosuroides); experiment: Test B postemergence; details: 13 to 15 days
Method in brief: as §1

wild oat (Avena fatua) = experiment: Test B postemergence; details: 13 to 15 days
Method in brief: as §1

[13] = system: barnyardgrass (Echinochloa crus-galli); experiment: Test B flooded paddy test; details: Rate 1000 g/ha, scale of 0 to 100 where 0 is no effect and 100 is complete control, visually evaluated after 13 to 15 days
Experimental: (§2) At the same time, plants selected from these crop and weed species and also blackgrass (Alopecurus myosuroides), wheat (Triticum aestivum) and wild oat (Avena fatua) were treated with postemergence applications of test chemicals formulated in the same manner. Plants ranged in height from 2 to 18 cm (1- to 4-leaf stage) for postemergence treatments. Plant species in the flooded paddy test consisted of rice (Oryza saliva), smallflower flatsedge (Cyperus difformis), duck salad (Heteranthera limosa) and barnyardgrass (Echinochloa crus-galli) grown to the 2-leaf stage for testing. Treated plants and controls were maintained in a greenhouse for 13 to 15 days, after which time all species were compared to controls and visually evaluated. Plant response ratings, summarized in Table B, are based on a scale of 0 to 100 where 0 is no effect and 100 is complete control. A dash (-) response means no test result.

[14] = system: duck salad (Heteranthera limosa); experiment: Test B flooded paddy test; details: Rate 1000 g/ha, scale of 0 to 100 where 0 is no effect and 100 is complete control, visually evaluated after 13 to 15 days
Experimental: as §2

[15] = system: smallflower flatsedge (Cyperus difformis); experiment: Test B flooded paddy test; details: Rate 1000 g/ha, scale of 0 to 100 where 0 is no effect and 100 is complete control, visually evaluated after 13 to 15 days
Experimental: as §2

rice (Oryza saliva) [16] = experiment: Test B flooded paddy test; details: Rate 1000 g/ha, scale of 0 to 100 where 0 is no effect and 100 is complete control, visually evaluated after 13 to 15 days
Experimental: as §2

[17] = system: crabgrass (Digitaria sanguinalis); experiment: Test B preemergence
Method in brief: as §1

[18] = system: lambsquarters (Chenopodium album); experiment: Test B preemergence; details: scale 0 to 100, 0 no effect, 100 complete control
Method in brief: as §1

[19] = system: giant foxtail (Setaria faberii); experiment: Test B preemergence
Method in brief: as §1

corn (Zea mays) [20] = experiment: Test B preemergence
Method in brief: as §1

[21] = system: Surinam grass (Brachiaria decumbens); experiment: Test B preemergence
Method in brief: as §1

[22] = system: barnyardgrass (Echinochloa crus-galli); experiment: Test B preemergence
Method in brief: as §1

[23] = system: cocklebur (Xanthium strumarium); experiment: Test B preemergence
Method in brief: as §1

[24] = system: pigweed (Amaranthus retroflexus); experiment: Test B preemergence
Method in brief: as §1

[25] = system: morning glory (Ipomoea hederacea); experiment: Test B preemergence
Method in brief: as §1

rice (Oryza saliva) [26] = experiment: Test B preemergence
Method in brief: as §1

[27] = system: velvetleaf (Abutilon theophrasti); experiment: Test B preemergence
Method in brief: as §1

[28] = Rate 125 g/ha, scale 0 (no effect) to 100 (complete control)
[29] = Rate 500 g/ha, scale 0 to 100, 0 is no effect, 100 is complete control
[30] = Preemergence, Rate 500 g/ha, scale 0 to 100, 0 no effect, 100 complete control
[31] = preemergence, Rate 125 g/ha, scale 0 to 100, 0 no effect, 100 complete control
[32] = preemergence, Rate 125 g/ha, scale of 0 to 100 where 0 is no effect and 100 is complete control, 13 to 15 days

O=C1C(n2cccn2)SCN1c1cccc(C(F)(F)F)c1 (stereo not drawn) [Compound 18]
Plant response rating, Crabgrass [1, 28]: 0 | Plant response rating, Crabgrass [1, 29]: 0 | Plant response rating, Lambsquarters [2, 28]: 60 | Plant response rating, Lambsquarters [2, 29]: 70 | Plant response rating, Foxtail, Giant [3, 28]: 0 | Plant response rating, Foxtail, Giant [3, 29]: 0 | Plant response rating, Corn (corn (Zea mays) [4]; [28]): 0 | Plant response rating, Corn (corn (Zea mays) [4]; [29]): 0 | Plant response rating, Surinam grass [5, 28]: 0 | Plant response rating, Surinam grass [5, 29]: 0 | Plant response rating, Barnyardgrass [6, 28]: 0 | Plant response rating, Barnyardgrass [6, 29]: 0 | Plant response rating, Cocklebur [7, 28]: 0 | Plant response rating, Cocklebur [7, 29]: 20 | Plant response rating, Velvetleaf [8, 28]: 0 | Plant response rating, Velvetleaf [8, 29]: 20 | Plant response rating, Pigweed [9, 28]: 0 | Plant response rating, Pigweed [9, 29]: 0 | Plant response rating, Wheat [10, 28]: 0 | Plant response rating, Wheat [10, 29]: 0 | Plant response rating, Morningglory [11, 28]: 10 | Plant response rating, Morningglory [11, 29]: 10 | Plant response rating, Blackgrass [12, 28]: 0 | Plant response rating, Blackgrass [12, 29]: 0 | Plant response rating, Wild Oat (wild oat (Avena fatua); [28]): 0 | Plant response rating, Wild Oat (wild oat (Avena fatua); [29]): 0 | Plant response rating, Barnyardgrass [13]: 0 | Plant response rating, Ducksalad [14]: 0 | Plant response rating, Flatsedge [15]: 0 | Plant response rating, Rice (rice (Oryza saliva) [16]): 0 | Plant response rating, Crabgrass [17, 30]: 0 | Plant response rating, Crabgrass [17, 31]: 0 | Plant response rating, Lambsquarters ([18]; preemergence, Rate 125 g/ha): 0 | Plant response rating, Foxtail, Giant [19, 30]: 0 | Plant response rating, Foxtail, Giant [19, 31]: 0 | Plant response rating, Corn (corn (Zea mays) [20]; [30]): 0 | Plant response rating, Corn (corn (Zea mays) [20]; [31]): 0 | Plant response rating, Surinam grass [21, 30]: 0 | Plant response rating, Surinam grass [21, 31]: 0 | Plant response rating, Barnyardgrass [22, 30]: 0 | Plant response rating, Barnyardgrass [22, 31]: 0 | Plant response rating, Cocklebur [23, 30]: 0 | Plant response rating, Cocklebur [23, 31]: 0 | Plant response rating, Pigweed [24, 30]: 0 | Plant response rating, Pigweed [24, 31]: 0 | Plant response rating, Morningglory [25, 30]: 0 | Plant response rating, Morningglory [25, 31]: 0 | Plant response rating, Rice (rice (Oryza saliva) [26]; [30]): 0 | Plant response rating, Rice (rice (Oryza saliva) [26]; [31]): 0

Cc1ccc(N2CCC(n3ccc(C(C)(C)C)n3)C2=O)cc1Br (stereo not drawn) [Compound 35]
Plant response rating, Crabgrass [1, 28]: 0 | Plant response rating, Crabgrass [1, 29]: 0 | Plant response rating, Lambsquarters [2, 28]: 0 | Plant response rating, Lambsquarters [2, 29]: 80 | Plant response rating, Foxtail, Giant [3, 28]: 0 | Plant response rating, Foxtail, Giant [3, 29]: 0 | Plant response rating, Corn (corn (Zea mays) [4]; [28]): 0 | Plant response rating, Corn (corn (Zea mays) [4]; [29]): 0 | Plant response rating, Surinam grass [5, 28]: 0 | Plant response rating, Surinam grass [5, 29]: 0 | Plant response rating, Barnyardgrass [6, 28]: 0 | Plant response rating, Barnyardgrass [6, 29]: 40 | Plant response rating, Cocklebur [7, 28]: 40 | Plant response rating, Cocklebur [7, 29]: 40 | Plant response rating, Velvetleaf [8, 28]: 0 | Plant response rating, Velvetleaf [8, 29]: 0 | Plant response rating, Pigweed [9, 28]: 90 | Plant response rating, Pigweed [9, 29]: 90 | Plant response rating, Wheat [10, 28]: 0 | Plant response rating, Wheat [10, 29]: 0 | Plant response rating, Morningglory [11, 28]: 0 | Plant response rating, Morningglory [11, 29]: 20 | Plant response rating, Blackgrass [12, 28]: 0 | Plant response rating, Blackgrass [12, 29]: 0 | Plant response rating, Wild Oat (wild oat (Avena fatua); [28]): 0 | Plant response rating, Wild Oat (wild oat (Avena fatua); [29]): 0 | Plant response rating, Barnyardgrass [13]: 60 | Plant response rating, Ducksalad [14]: 0 | Plant response rating, Flatsedge [15]: 100 | Plant response rating, Rice (rice (Oryza saliva) [16]): 0 | Plant response rating, Crabgrass [17, 30]: 100 | Plant response rating, Crabgrass [17, 31]: 0 | Plant response rating, Lambsquarters ([18]; Preemergence, Rate 500 g/ha): 100 | Plant response rating, Lambsquarters ([18]; preemergence, Rate 125 g/ha): 0 | Plant response rating, Foxtail, Giant [19, 30]: 0 | Plant response rating, Foxtail, Giant [19, 31]: 0 | Plant response rating, Corn (corn (Zea mays) [20]; [30]): 0 | Plant response rating, Corn (corn (Zea mays) [20]; [31]): 0 | Plant response rating, Surinam grass [21, 30]: 0 | Plant response rating, Surinam grass [21, 31]: 0 | Plant response rating, Barnyardgrass [22, 30]: 60 | Plant response rating, Barnyardgrass [22, 31]: 0 | Plant response rating, Cocklebur [23, 30]: 0 | Plant response rating, Cocklebur [23, 31]: 0 | Plant response rating, Velvetleaf [27, 30]: 0 | Plant response rating, Pigweed [24, 30]: 100 | Plant response rating, Morningglory [25, 30]: 0 | Plant response rating, Rice (rice (Oryza saliva) [26]; [30]): 0

CCOc1ccn(C2CCN(c3cccc(C(F)(F)F)c3)C2=O)n1 (stereo not drawn) [Compound 61]
Plant response rating, Crabgrass [1, 28]: 0 | Plant response rating, Crabgrass [1, 29]: 0 | Plant response rating, Lambsquarters [2, 28]: 0 | Plant response rating, Lambsquarters [2, 29]: 0 | Plant response rating, Foxtail, Giant [3, 28]: 0 | Plant response rating, Foxtail, Giant [3, 29]: 0 | Plant response rating, Corn (corn (Zea mays) [4]; [28]): 0 | Plant response rating, Corn (corn (Zea mays) [4]; [29]): 0 | Plant response rating, Surinam grass [5, 28]: 0 | Plant response rating, Surinam grass [5, 29]: 0 | Plant response rating, Barnyardgrass [6, 28]: 0 | Plant response rating, Barnyardgrass [6, 29]: 0 | Plant response rating, Cocklebur [7, 28]: 0 | Plant response rating, Cocklebur [7, 29]: 0 | Plant response rating, Velvetleaf [8, 28]: 0 | Plant response rating, Velvetleaf [8, 29]: 0 | Plant response rating, Pigweed [9, 28]: 0 | Plant response rating, Pigweed [9, 29]: 0 | Plant response rating, Wheat [10, 28]: 0 | Plant response rating, Wheat [10, 29]: 0 | Plant response rating, Morningglory [11, 28]: 0 | Plant response rating, Morningglory [11, 29]: 0 | Plant response rating, Blackgrass [12, 28]: 0 | Plant response rating, Blackgrass [12, 29]: 0 | Plant response rating, Wild Oat (wild oat (Avena fatua); [28]): 0 | Plant response rating, Wild Oat (wild oat (Avena fatua); [29]): 0 | Plant response rating, Barnyardgrass [13]: 0 | Plant response rating, Ducksalad [14]: 30 | Plant response rating, Flatsedge [15]: 20 | Plant response rating, Rice (rice (Oryza saliva) [16]): 0 | Plant response rating, Crabgrass [17, 30]: 0 | Plant response rating, Crabgrass [17, 32]: 0 | Plant response rating, Foxtail, Giant [19, 30]: 0 | Plant response rating, Foxtail, Giant [19, 32]: 0 | Plant response rating, Corn (corn (Zea mays) [20]; [30]): 0 | Plant response rating, Corn (corn (Zea mays) [20]; [32]): 0 | Plant response rating, Surinam grass [21, 30]: 0 | Plant response rating, Surinam grass [21, 32]: 0 | Plant response rating, Barnyardgrass [22, 30]: 0 | Plant response rating, Barnyardgrass [22, 32]: 0 | Plant response rating, Cocklebur [23, 30]: 0 | Plant response rating, Cocklebur [23, 32]: 0 | Plant response rating, Velvetleaf [27, 30]: 0 | Plant response rating, Velvetleaf [27, 32]: 0 | Plant response rating, Pigweed [24, 30]: 0 | Plant response rating, Pigweed [24, 32]: 0 | Plant response rating, Morningglory [25, 30]: 0 | Plant response rating, Morningglory [25, 32]: 0 | Plant response rating, Rice (rice (Oryza saliva) [26]; [30]): 0 | Plant response rating, Rice (rice (Oryza saliva) [26]; [32]): 0
